Here are results for one compound from patent US20230391868A1, “COMPOSITIONS FOR AND METHODS OF TREATING CANCER” (The George Washington University, priority 2022, published 2023).

Molecules are shown by their SMILES.

In assay [1] the test system is A31A7 macrophages and BMDMs. Nature of the assay: Macrophage cell surface marker expression by flow cytometry. It counts as cell-based, mouse. How it is done:
Bone marrow-derived macrophages were isolated from the femurs and tibias of wild-type C57/Bl6, HDAC6 knockout (C57BL/6J-Hdac6em2Lutzy/J, 029318, Jackson Laboratory), or UBC-GFP (C57BL/6-Tg(UBC-GFP)30Scha/J, 004353, Jackson Laboratory). Isolated bone marrow cells were cultured in RPMI 1640 complete medium with 10% FBS, 1% NEAA, and 1% penicillin-streptomycin in 5% CO2 at 37° C. Medium was supplemented with murine recombinant M-CSF (20 ng/mL, 576404, Biolegend) to differentiate monocytes into macrophages. Three days after bone marrow isolation, undifferentiated and floating cells were washed with PBS and replaced with fresh RPMI media. A3.1A7 cells and BMDMs were pretreated with 5 μM of HDAC6 inhibitor NextA or vehicle prior to adding polarizing cytokines.
Macrophages were polarized to M1-like phenotype using 50 ng/mL of interferon gamma (IFNγ, 575306, Biolegend) and 100 ng/mL of bacterial lipopolysaccharide (LPS, L2880, Sigma Aldrich, St. Louis, MO) for 24 hours. To polarize macrophages towards the M2-like phenotype, macrophages were stimulated with 20 ng/mL of IL-4 (214-14, PeproTech) and 20 ng/mL of IL-13 (575904, Biolegend). THP1 monocytes were treated with 5 ng/mL of phorbol 12-myristate 13-acetate (PMA) to induce differentiation into macrophages. Once converted to macrophages, media was replaced to remove PMA prior to treatment and/or polarization. […]
(In general: In flow cytometry, cells or beads pass a laser one at a time.)

Assay [2] concerns A31A7 macrophages. Nature of the assay: Western Blotting of A31A7 macrophages polarized to M2. The class given is cell-based, mouse. The note with it: Western Blot, M2 A31A7 (FIG. 7F). How it is done:
Cells were treated with the respective compounds for 24 h. Then, cells were lysed using RIPA buffer (ThermoFisher Scientific Pierce, 89901, Waltham, MA) supplemented with 1× protease and phosphatase inhibitor (ThermoFisher Scientific, A32961). Lysates were sonicated at 4° C. for 8 minutes (8 cycles of 30 sec on, 30 sec off). Protein concentration was quantified using a BCA protein assay (ThermoFisher Scientific, 23225) following manufacturer's instructions. Samples were mixed with 6× Laemmli SDS sample reducing buffer (Alfa Aesar, J61337AC, Tewksbury, MA), and boiled at 80° C. for 10 min. Next, samples were loaded on to 4%-20% gels (Bio-Rad, 4561096, Hercules, CA), transferred to PVDF membranes and blocked with Odyssey Blocking Buffer (LI-COR Biosciences, 927-40000, Lincoln, NE). The following primary antibodies used for immunoblotting were purchased from Cell Signaling Technologies (Danvers, MA): tubulin (3873), acetylated tubulin (3971), arginase-1 (93668), and SIRPα (13379). Primary antibody recognizing HDAC6 was purchased from Assay Biotechnology (C0226, Fremont, CA), and iNOS antibody was purchased from ThermoFisher Scientific (PA3-030A). Bands were detected using Azure Biosystems Imaging System c600 (Azure Biosystems, Dublin, CA).
(Immunoblotting shows a protein as a band on a membrane.)

Assay [3] deals with SIRPα. Nature of the assay: Cell surface SIRPα expression by flow cytometry. The class given is cell-based, mouse. The note with it: A31A7 macrophages and BMDMs; flow cytometry (FIG. 2C). How it is done: Cell surface expression of CD47 in melanoma cells was evaluated using PE anti-mouse CD47 (clone miap301, […], Biolegend), PE anti-human CD47 (clone CC2C6, 323108, Biolegend), and their respective isotype controls (400508, 400113, respectively, Biolegend). SIRPα was evaluated using APC anti-mouse CD172a (SIRPα) antibody (clone P84, 144014, Biolegend) or APC anti-human CD172a/b (SIRPα/β) antibody (clone SE5A5, 323810, Biolegend) and their respective isotype controls (400411, Biolegend).

Assay [4] deals with SIRPα. In words: SIRPα expression on NK cells. It counts as cell-based.

`CCCCN(Cc1ccc(C(=O)NO)cc1)C(=O)Nc1ccccc1` [NextA, Nexturastat A]: in assay [1] (A31A7 and BMDMs polarized to M1-like phenotypes, 5 μM (FIG. 1B)), the “cell surface expression of CD80 and H2” value was “upregulation”. The CD206 surface expression entry in assay [1] (A31A7 cells and BMDMs, M2, 5 μM (FIG. 1D)) was “significantly downregulated”. Moreover, in assay [2], the ARG1 expression entry is reported as “decrease”; the “HDAC6 inhibitor potency compared with Tubacin and Tubastatin A” value is recorded as “most potent HDAC6 inhibitor”; the “acetylated tubulin, a marker for HDAC6 inhibition” value is “robust increase”. Further, the “SIRPα expression on the cell surface” value in assay [3] is on record as “significantly decreased”. The “SIRPα expression on NK cells” value in assay [4] was “downregulated”.
